Experimental data published in patent JP2008297320A (priority 2000, dated 2001).

Assay: Test Example 2: persistence of Compound B concentration in mouse lung tissue (14C-labelled compounds)
Format: in vivo
Conditions: Balb/C mice (female), up to 72 h
[1] = intranasal 14C-labelled Compound A 0.3 and 1 μmol/kg

Row | Structure (SMILES) | disappearance of Compound B from lung tissue (intranasal 14C-labelled Compound B 4 μmol/kg) | conversion of Compound A (ester derivative) to Compound B (active form) [1] | persistence of Compound B (active form) concentration in lung tissue after administration of Compound A [1]
1 | CO[C@@H]([C@@H]1OC(C(=O)O)=C[C@H](NC(=N)N)[C@H]1NC(C)=O)[C@H](O)CO [化合物B, 5-アセタミド-4-グアニジノ-2、3、4、5-テトラデオキシ-7-メトキシ-D-グリセロ-D-ガラクト-ノン-2-エノピラソン酸, reference compound] | 速やかに肺組織から消失した |  | 
2 | CCCCCCCC(=O)OC[C@@H](O)[C@@H](OC)[C@@H]1OC(C(=O)O)=C[C@H](NC(=N)N)[C@H]1NC(C)=O [化合物A, 5-アセタミド-4-グアニジノ-9-O-オクタノイル-2、3、4、5-テトラデオキシ-7-メトキシ-D-グリセロ-D-ガラクト-ノン-2-エノピラソン酸] |  | 速やかに変換される | 長期にわたり持続した
